Laboratory results: PubChem BioAssay (NCI)
“And” between values parts separate entries of the source, which are not always exact repeats. Equal entries are not always repeated.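 Results reflect a 48-hour exposure of cells in 96-well plates to compound at five concentrations. Here, GI50 denotes the concentration required for 50% inhibition of growth. TGI: concentration producing complete growth inhibition.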

Tests used:
Assay in all cases: DTP human tumour cell line panel, 48 h
HOP-62 NSCLC = tested on: HOP-62 NSCLC
UACC-62 melanoma = tested on: UACC-62 melanoma
M14 melanoma = tested on: M14 melanoma
DLD-1 colon = tested on: DLD-1 colon
OVCAR-8 ovarian = tested on: OVCAR-8 ovarian
DMS 114 small cell lung = tested on: DMS 114 small cell lung
HOP-18 NSCLC = tested on: HOP-18 NSCLC
786-0 renal = tested on: 786-0 renal
LOX IMVI melanoma = tested on: LOX IMVI melanoma
MDA-MB-231 breast = tested on: MDA-MB-231 breast

| SMILES | TGI (HOP-62 NSCLC) | TGI (UACC-62 melanoma) | TGI (M14 melanoma) | TGI (DLD-1 colon) | TGI (OVCAR-8 ovarian) | TGI (DMS 114 small cell lung) | TGI (HOP-18 NSCLC) | TGI (786-0 renal) | TGI (LOX IMVI melanoma) | GI50 (HOP-62 NSCLC) | GI50 (UACC-62 melanoma) | GI50 (M14 melanoma) | GI50 (DLD-1 colon) | GI50 (OVCAR-8 ovarian) | GI50 (DMS 114 small cell lung) | GI50 (786-0 renal) | GI50 (LOX IMVI melanoma) | GI50 (HOP-18 NSCLC) | TGI (MDA-MB-231 breast) |
| --- | --- | --- | --- | --- | --- | --- | --- | --- | --- | --- | --- | --- | --- | --- | --- | --- | --- | --- | --- |
| NC1=NN(c2ccccc2)C(=O)C1/C(=N\NC(=O)c1cc2ccccc2cc1O)C(=O)Nc1ccc(Cl)cc1 (stereo unspecified) | > 100 µM | 66.2 µM | 74.7 µM | > 100 µM | > 100 µM | 56.7 µM | > 100 µM | > 100 µM |  |  |  |  |  |  |  |  |  |  |  |
| CCOC(=O)Oc1ccc2[nH]c3c(C)cc(N)c(C)c3c2c1 | > 100 µM |  | > 100 µM | > 100 µM | > 100 µM | > 100 µM | > 100 µM | > 100 µM | > 100 µM |  |  |  |  |  |  |  |  |  |  |
| CC(C)=NO.CC(C)=NO.CC(C)=NO.CC(C)=NO.[Ti] | > 100 µM | > 100 µM | > 100 µM | > 100 µM | > 100 µM | > 100 µM |  | > 100 µM | > 100 µM | > 100 µM | > 100 µM | > 100 µM | > 100 µM | > 100 µM | > 100 µM | > 100 µM | > 100 µM |  |  |
| Nc1ccc2ncc(Nc3ccc(Cl)c(Cl)c3)nc2c1 | 84.3 µM | 50.9 µM | 94.1 µM | > 100 µM | 83.3 µM | 42.1 µM |  | > 100 µM | > 100 µM |  |  |  |  |  |  |  |  |  |  |
| O=C(Nc1ccccc1)Oc1ccccc1C1CCCCC1 | 59.6 µM | > 100 µM | 56.7 µM | > 100 µM | > 100 µM | 32.8 µM | 68.5 µM | 53.2 µM | 26.8 µM |  |  |  |  |  |  |  |  |  |  |
| Cn1nc(-c2ccccc2)c(C(=O)/C=C/c2ccccc2)c(N2CCCC2)c1=O | 24.2 µM | 41 µM | 35.3 µM | 34.2 µM | 76.5 µM | 34.2 µM | 47.1 µM | 33.4 µM | 88.2 µM |  |  |  |  |  |  |  |  |  |  |
| CC1=CC(=O)N2[C@H](OC[C@@H]2C(C)C)O1 | > 100 µM | > 100 µM | > 100 µM | > 100 µM | > 100 µM | > 100 µM | > 100 µM | > 100 µM |  |  |  |  |  |  |  |  |  |  |  |
| CN1OC(CO)CC12C1CC3CC(C1)CC2C3 (stereo unspecified) | > 100 µM | > 100 µM | > 100 µM | > 100 µM | > 100 µM | > 100 µM | > 100 µM | > 100 µM | > 100 µM |  |  |  |  |  |  |  |  |  |  |
| COc1cccc(OC)c1/C=N\N1C(=O)c2ccccc2C1=O | > 100 µM | > 100 µM | 58.2 µM | > 100 µM | 89.3 µM | 91 µM | > 100 µM | > 100 µM | > 100 µM |  |  |  |  |  |  |  |  |  |  |
| Cc1cc2c(=O)cc(-c3ccncc3)oc2c(C(=O)O)c1C | > 100 µM | > 100 µM |  |  | > 100 µM |  | > 100 µM | > 100 µM | > 100 µM |  |  |  |  |  |  |  |  |  |  |
| CC(=O)OCC1OC(OC(C)=O)C(NC#N)C(OC(C)=O)C1OC(C)=O (stereo unspecified) | > 100 µM | > 100 µM | > 100 µM | > 100 µM | > 100 µM | > 100 µM | > 100 µM | > 100 µM | > 100 µM |  |  |  |  |  |  |  |  |  |  |
| CCNC(=O)O/N=C1/C=C2CC[C@@H]3C(CC[C@@]4(C)C3CC[C@@H]4OC(=O)NCC)[C@@]2(C)CC1 (stereo partly specified) | > 100 µM | 7.92 µM | 8.22 µM | > 100 µM | 16.3 µM | 3.29 µM |  | 10.7 µM | 11.9 µM |  |  |  |  |  |  |  |  |  |  |
| COC(=O)N/N=C(\c1nc2ccc(Cl)cc2[nH]c1=O)C(O)c1ccc([N+](=O)[O-])cc1 (stereo unspecified) | > 100 µM | > 100 µM | > 100 µM | > 100 µM | > 100 µM | > 100 µM |  | > 100 µM | > 100 µM |  |  |  |  |  |  |  |  |  |  |
| O=c1cccccc1[O-].O=c1cccccc1[O-].O=c1cccccc1[O-].[Dy+3] | 99.9 µM | > 100 µM | > 100 µM | > 100 µM | 97.6 µM |  |  | > 100 µM | > 100 µM | 33 µM |  |  | 16.9 µM |  |  |  |  |  |  |
| O=[N+]([O-])C1(CO)COC(CCc2ccccc2)OC1 (stereo unspecified) | > 100 µM | > 100 µM | > 100 µM | > 100 µM | > 100 µM |  | > 100 µM | > 100 µM | > 100 µM |  |  |  |  |  |  |  |  |  |  |
| COC(=O)C1=C(C)C(=O)C2(CCCCCC2C(=O)OC)C1 (stereo unspecified) | > 100 µM | > 100 µM | > 100 µM | > 100 µM | > 100 µM | > 100 µM | > 100 µM | > 100 µM |  |  |  |  |  |  |  |  |  |  |  |
| Cc1[nH]n(C(=O)c2ccc(Cl)cc2)c(=O)c1/C=C1\C(O)=CC(=O)c2ccccc21 | > 100 µM | > 100 µM | > 100 µM | > 100 µM | > 100 µM | > 100 µM |  | > 100 µM | > 100 µM |  |  |  |  |  |  |  |  |  |  |
| Cc1c(C(=O)C/C(=N/NC(=O)CC#N)C(N)=O)[n+](=O)c2ccccc2n1[O-] | > 100 µM | > 100 µM | > 100 µM | > 100 µM | > 100 µM | 57.8 µM | > 100 µM | > 100 µM | > 100 µM |  |  |  |  |  |  |  |  |  |  |
| CC1=C2[C@@H](c3ccccc3)C3C=CC2(C=C3C(F)(F)F)N(C(=O)NC2CCCCC2)C1=O (stereo partly specified) | > 100 µM | > 100 µM | > 100 µM | > 100 µM | > 100 µM | > 100 µM | > 100 µM | > 100 µM | > 100 µM |  |  |  |  |  |  |  |  |  |  |
| O=[N+]([O-])c1cccc(C2=NOC3CCCC23)c1 (stereo unspecified) | > 100 µM | > 100 µM | > 100 µM | > 100 µM | > 100 µM | > 100 µM | > 100 µM | > 100 µM |  |  |  |  |  |  |  |  |  |  |  |
| CCOC(=O)c1c(/C=N\Nc2ccccc2)nc2ccccc2c1-c1ccccc1 | > 100 µM | 76.9 µM | > 100 µM |  | > 100 µM | 98.1 µM | > 100 µM | > 100 µM | > 100 µM |  |  |  |  |  |  |  |  |  |  |
| Cc1c2cc[n+](C)cc2c(C)c2c1[nH]c1ccc(Oc3ccccc3)cc12 | 38 µM and 26.3 µM | 7.5 µM and 7.54 µM | > 61.5 µM and 40.1 µM | > 100 µM | > 100 µM |  | 21.8 µM and 32.5 µM | > 64.3 µM | 11.3 µM and 50.1 µM |  |  |  |  |  |  |  | 2.96 µM | 2.37 µM and 5.56 µM |  |
| COC(=O)c1ccccc1NCc1cc(O)ccc1O | > 71.4 µM | 45.5 µM | 17.1 µM | 43 µM | 34.5 µM |  | 27.6 µM | 31.7 µM | 32 µM |  |  |  |  |  |  |  |  |  |  |
| Cc1c(N)nc(C2CC(=O)N2CC(N)C(N)=O)nc1C(=O)NC(C(=O)NC(C)C(O)C(C)C(=O)NC(C(=O)NCCc1nc(-c2nc(C(=O)NCCNCC(C)O)cs2)cs1)C(C)O)C(OC1OC(CO)C(O)C(O)C1OC1OC(CO)C(O)C(OC(N)=O)C1O)c1cnc[nH]1 (stereo unspecified) | 6.25 µM and 0.914 µM | 6.43 µM and 7.31 µM | 50 µM and 23.8 µM | > 100 µM | 50 µM and > 100 µM | 4.47 µM | > 100 µM | 50 µM and 36.8 µM | 9.28 µM and 8.16 µM | 0.188 µM | 0.756 µM | 7.91 µM |  | 6.97 µM |  | 2.3 µM | 0.712 µM |  | > 50 µM |
